Reference: US5968838A, “Antiarrhythmic peptide from venom of spider Grammostola spatulata” (priority 1998, dated 1999)
Where two headings read alike, the source gives them in different places. Ends that are not written are not given here.

Key:
Assay type in all cases: cell-based, Rat
L-type Ca^2+ channels = assay: Depolarization (high K+) induced Ca2+ increase in GH3 cells, three consecutive depolarizations
Method: After loading with Fura-2, the cover slip containing the GH3 cells was mounted in a custom made holder and placed in a quartz cuvette at an angle of 20 degrees to the excitation beam. The cells on the cover slip were exposed to various test solutions and the changes in calcium ion concentration were measured according to the following method. Fluorescence emission was collected from a group of about 10^5 cells located in the excitation path. Excitation beams at 340 nm (Ex340nm) and 380 nm (Ex380 nm) were used and the fluorescence intensities at 510 nm (Em5 10 nm) were monitored. […] Fluorescence emission data was collected for times up to 600 to 1200 seconds depending on the solution added to the cells. […]

GH3 cells = assay: Cell Ca2+ of GH3 cells in isotonic saline (Fura-2); details: 10 μM peptide
Method: (§1) Rat pituitary cell line GH3 was provided by Dr. S. Simasko, Department of VCAPP, Washington State University, Pullman, Wash., 99164 and the American Type Culture Collection, Rockville, Md. The cells were cultured in standard medium containing 82.5% Ham's F-10 nutrients (Gibco, Gaithersburg, Md.), 15 % heat inhibited horse serum (Gibco) and 2.5% fetal bovine serum (Gibco) at 37C in 10% CO2. Cells were fed twice per week and subcultured once per week. For Fura-2 fluorescence measurements, cells were plated on poly-L-lysine coated glass cover slips at 95% confluency, cultured under normal conditions and used between 3 to 6 days after plating.
Ca^2+ was measured on an SLM AB-2 fluorescence spectrometer (SLM Instruments, Rochester, N.Y.). […]
After loading with Fura-2, the cover slip containing the GH3 cells was mounted in a custom made holder and placed in a quartz cuvette at an angle of 20 degrees to the excitation beam. The cells on the cover slip were exposed to various test solutions and the changes in calcium ion concentration were measured according to the following method. Fluorescence emission was collected from a group of about 10^5 cells located in the excitation path. Excitation beams at 340 nm (Ex340nm) and 380 nm (Ex380 nm) were used and the fluorescence intensities at 510 nm (Em5 10 nm) were monitored. […]

[1] = tested on: stretch activated channel; assay: Fura-2 fluorescence ratio measurement of stretch activated channel activity: hypotonic cell swelling induced calcium increase (HICI) in GH3 cells
Method: as §1
Ca^2+ was measured on an SLM AB-2 fluorescence spectrometer (SLM Instruments, Rochester, N.Y.). Cells plated on poly-L-lysine coated glass cover slips were loaded with Fura-2 in a loading solution containing 2 micromolar Fura-2/AM (disclosed in Grynkiewicz, G. et al., (1985) Journal of Biological Chemistry 260: 3440-3450) according to the following procedure. Cells were washed twice in phosphate buffered saline (PBS) solution. Cells were then incubated in the loading solution for 30 minutes at 25C. The cells were rinsed twice with PBS and incubated in the culture medium for 30 minutes at 25C. Experiments were performed within 1 hour after loading. […]
After loading, the plated cells were exposed to various hypotonic and isotonic solutions and test solutions containing spider venom. Changes in the calcium ion concentration were measured according to the following method.
After loading with Fura-2, the cover slip containing the GH3 cells was mounted in a custom made holder and placed in a quartz cuvette at an angle of 20 degrees to the excitation beam. The cells on the cover slip were exposed to various test solutions and the changes in calcium ion concentration were measured according to the following method. Fluorescence emission was collected from a group of about 10^5 cells located in the excitation path. Excitation beams at 340 nm (Ex340nm) and 380 nm (Ex380 nm) were used and the fluorescence intensities at 510 nm (Em5 10 nm) were monitored. […] Fluorescence emission data was collected for times up to 600 to 1200 seconds depending on the solution added to the cells.
An increase in the Ca^2+ concentration caused an increase in the fluorescence at Em510 nm/Ex340nm and at the same time, a decrease at Em510/Ex380nm. The ratio of the two (R) was used to calculate the Ca^2+ concentration using the following formula: [formula] where kd is the equilibrium constant; Rmax is the ratio and Fb is the fluorescence intensity at Ex380nm when Fura-2 is saturated with Ca^2+, Rmin is the ratio and Ff is the fluorescence intensity at Ex380nm when Fura-2 is not bound by Ca^2+. […]

For `[Gd+3]` [Gd^3+], the “block of depolarization induced Ca2+ increase (comparators, stated by contrast)” value (L-type Ca^2+ channels; GH3 cells, concentration not given) was “block”.
With `COC(=O)C1=C(C)NC(C)=C(C(=O)OC)C1c1ccccc1[N+](=O)[O-]` [nifedipine] the “block of depolarization induced Ca2+ increase (comparators, stated by contrast)” value (L-type Ca^2+ channels) was “block”.
In the case of “YCQKWMWTCDEERKCCEGLVCRLWCKKKIEW (cysteine pairing not given here) [α Mechanotoxin]”, the “effect on cell Ca2+ in isotonic saline” value (GH3 cells) is reported as “decreases cell Ca^2+ to levels seen in the absence of extracellular Ca^2+”, the association rate ([1]; block of HICI in GH3 cells) is reported as “approximately 10^3 m^-1 s^-1” and the dissociation rate ([1]; block of HICI in GH3 cells) is reported as ~0.01 s⁻¹. For the same compound, the Kd ([1]; block of HICI in GH3 cells, read-out: equilibrium constant) was ~10 µM and the “block of hypotonic cell swelling induced calcium increase (HICI)” value ([1]; purified peptide, GH3 cells) was “reversibly blocks”.
